Measured values published in the supplement of paper PMC13207355.

Key:
Conditions in all cases: exposure time: 72 h
E28 [1] = patient-derived glioblastoma stem cells of classical subtype; assay: surviving fraction (nuclei count normalised to DMSO); higher = more cells surviving (less toxic)
FT3469 [2] = normal neural stem cell line; assay: as above
E34 [3] = patient-derived glioblastoma stem cells of proneural subtype; assay: as above
E13 [4] = patient-derived glioblastoma stem cells of classical subtype; assay: as above
E21 [5] = patient-derived glioblastoma stem cells of mesenchymal subtype; assay: as above
E57 [6] = patient-derived glioblastoma stem cells of mesenchymal subtype; assay: as above
E31 [7] = patient-derived glioblastoma stem cells of proneural subtype; assay: as above
E28 [8] = assay: phenotypic distance (Euclidean, principal components) from DMSO controls (arbitrary units); higher = stronger morphological change
FT3469 [9] = assay: as above
E34 [10] = assay: as above
E13 [11] = assay: as above
E21 [12] = assay: as above
E57 [13] = assay: as above
E31 [14] = assay: as above
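For phenotypic distance (Euclidean, principal components) from DMSO controls in this document: cell Painting imaging in 384-well plates, CellProfiler features reduced to at least 20 principal components, Euclidean distance versus same-plate DMSO vehicle wells (0.1% v/v), median over six images per well.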
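For surviving fraction (nuclei count normalised to DMSO) in this document: nuclei counted by high-content imaging of Hoechst-stained cells in laminin-coated 384-well plates, relative to 0.1% DMSO vehicle wells, with staurosporine as cell-death control.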

NCCCP(=O)(O)O [3-Aminopropylphosphonic acid]
Conditions	phenotypic distance	surviving fraction
E13 [4], 4.1 nM	–	0.801
E13 [4], 12.3 nM	–	0.888
E13 [4], 37 nM	–	1
E13 [4], 111.1 nM	–	0.872
E13 [4], 333.3 nM	–	0.982
E13 [4], 1000 nM	–	0.884
E13 [4], 3000 nM	–	0.962
E13 [11], 4.1 nM	0.873	–
E13 [11], 12.3 nM	0.485	–
E13 [11], 37 nM	1.1	–
E13 [11], 111.1 nM	0.795	–
E13 [11], 333.3 nM	1.09	–
E13 [11], 1000 nM	0.46	–
E13 [11], 3000 nM	0.816	–
E21 [5], 4.1 nM	–	0.806
E21 [5], 12.3 nM	–	0.98
E21 [5], 37 nM	–	0.902
E21 [5], 111.1 nM	–	0.886
E21 [5], 333.3 nM	–	1.08
E21 [5], 1000 nM	–	1
E21 [5], 3000 nM	–	0.86
E21 [12], 4.1 nM	1.29	–
E21 [12], 12.3 nM	5.29	–
E21 [12], 37 nM	0.988	–
E21 [12], 111.1 nM	1.15	–
E21 [12], 333.3 nM	1.08	–
E21 [12], 1000 nM	0.704	–
E21 [12], 3000 nM	0.925	–
E28 [1], 4.1 nM	–	0.762
E28 [1], 12.3 nM	–	0.907
E28 [1], 37 nM	–	0.775
E28 [1], 111.1 nM	–	0.984
E28 [1], 333.3 nM	–	0.931
E28 [1], 1000 nM	–	0.888
E28 [1], 3000 nM	–	0.713
E28 [8], 4.1 nM	0.627	–
E28 [8], 12.3 nM	0.887	–
E28 [8], 37 nM	1.05	–
E28 [8], 111.1 nM	0.933	–
E28 [8], 333.3 nM	1.07	–
E28 [8], 1000 nM	0.732	–
E28 [8], 3000 nM	1.53	–
E31 [7], 4.1 nM	–	1.14
E31 [7], 12.3 nM	–	0.932
E31 [7], 37 nM	–	1
E31 [7], 111.1 nM	–	0.983
E31 [7], 333.3 nM	–	1.05
E31 [7], 1000 nM	–	0.771
E31 [7], 3000 nM	–	0.945
E31 [14], 4.1 nM	0.65	–
E31 [14], 12.3 nM	0.816	–
E31 [14], 37 nM	0.948	–
E31 [14], 111.1 nM	0.488	–
E31 [14], 333.3 nM	0.824	–
E31 [14], 1000 nM	0.792	–
E31 [14], 3000 nM	0.929	–
E34 [3], 4.1 nM	–	0.923
E34 [3], 12.3 nM	–	1.06
E34 [3], 37 nM	–	0.998
E34 [3], 111.1 nM	–	1.09
E34 [3], 333.3 nM	–	1.08
E34 [3], 1000 nM	–	1.05
E34 [3], 3000 nM	–	1.05
E34 [10], 4.1 nM	0.981	–
E34 [10], 12.3 nM	3.38	–
E34 [10], 37 nM	1.08	–
E34 [10], 111.1 nM	0.945	–
E34 [10], 333.3 nM	0.527	–
E34 [10], 1000 nM	4.28	–
E34 [10], 3000 nM	0.559	–
E57 [6], 4.1 nM	–	0.924
E57 [6], 12.3 nM	–	0.912
E57 [6], 37 nM	–	1.01
E57 [6], 111.1 nM	–	1.06
E57 [6], 333.3 nM	–	0.959
E57 [6], 1000 nM	–	0.941
E57 [6], 3000 nM	–	1.07
E57 [13], 4.1 nM	1.04	–
E57 [13], 12.3 nM	0.788	–
E57 [13], 37 nM	0.764	–
E57 [13], 111.1 nM	0.744	–
E57 [13], 333.3 nM	0.772	–
E57 [13], 1000 nM	1.04	–
E57 [13], 3000 nM	1.21	–
FT3469 [2], 4.1 nM	–	0.65
FT3469 [2], 12.3 nM	–	0.955
FT3469 [2], 37 nM	–	0.892
FT3469 [2], 111.1 nM	–	0.941
FT3469 [2], 333.3 nM	–	1.09
FT3469 [2], 1000 nM	–	1.08
FT3469 [2], 3000 nM	–	1.06
FT3469 [9], 4.1 nM	1.45	–
FT3469 [9], 12.3 nM	0.83	–
FT3469 [9], 37 nM	0.983	–
FT3469 [9], 111.1 nM	0.685	–
FT3469 [9], 333.3 nM	0.68	–
FT3469 [9], 1000 nM	0.784	–
FT3469 [9], 3000 nM	2.45	–
